Laboratory results from publication PMC5472428 (Drug Design, Development and Therapy, 2017).

Tests used:
[1] = Pharmacokinetic studies in rabbits; format: in vivo; details: Albino, rabbit, plasma, po, 1 mg/kg
[2] = poor aqueous solubility and good permeability; cited from earlier work

AUC [1]: 782 ± 93.7 ng·h/mL
Cmax [1]: 39.2 ± 9.92 ng/mL
Tmax [1]: 3.5 ± 0.37 h
half-life [1]: 11 ± 2.17 h
k el [1]: 1.72e-05 s⁻¹
SMILES: CC(C)(C)NC(=O)[C@H]1CC[C@H]2[C@@H]3CC[C@H]4NC(=O)C=C[C@]4(C)[C@H]3CC[C@]12C [FIN, (5alpha,17beta)-(1,1-dimethylethyl)-3-oxo-4-azaandrost-1-ene-17-carboxamide]
Biopharmaceutics Classification System (BCS) class [2]: Class II
